Patent publication EP4737445A1, “NOVEL SATURATED HETEROCYCLE-SUBSTITUTED HETEROARYL-CARBONOHYDRAZONOYL DICYANIDE COMPOUND AND USE THEREOF” (Korea Institute of Science and Technology, priority 2023, dated 2025)

What was measured:
[1] = system: Tau-BiFC cells; assay: Cell viability (stained nuclei count) in Tau-BiFC cells; format: cell-based; conditions: @10 µM; Tau-BiFC cell line; Forskolin-only group = 100%
Outline: (§1)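 Tau-BiFC cells were co-treated with compound (1, 3, 10 µM for screening; 0.03–30 µM for IC50) and 30 µM Forskolin for 48 h. BiFC fluorescence was normalised to the Forskolin-only window for aggregation; viability came from Hoechst-stained nuclei counts relative to Forskolin-only (100%). IC50 was derived by nonlinear regression.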

[2] = target: T1, CYP2C19 (Homo sapiens, UniProt P33261); assay: CYP isoenzyme activity inhibition in human liver microsomes, CYP2C19; format: in vitro ADME; conditions: 10 µM compound; human liver microsomes 0.25 mg/mL; relative to control without compound
T1 construct: human liver microsomes (0.25 mg/mL); from tissue; host or cells: human liver microsomes
T1 sequence (P33261 whole entry): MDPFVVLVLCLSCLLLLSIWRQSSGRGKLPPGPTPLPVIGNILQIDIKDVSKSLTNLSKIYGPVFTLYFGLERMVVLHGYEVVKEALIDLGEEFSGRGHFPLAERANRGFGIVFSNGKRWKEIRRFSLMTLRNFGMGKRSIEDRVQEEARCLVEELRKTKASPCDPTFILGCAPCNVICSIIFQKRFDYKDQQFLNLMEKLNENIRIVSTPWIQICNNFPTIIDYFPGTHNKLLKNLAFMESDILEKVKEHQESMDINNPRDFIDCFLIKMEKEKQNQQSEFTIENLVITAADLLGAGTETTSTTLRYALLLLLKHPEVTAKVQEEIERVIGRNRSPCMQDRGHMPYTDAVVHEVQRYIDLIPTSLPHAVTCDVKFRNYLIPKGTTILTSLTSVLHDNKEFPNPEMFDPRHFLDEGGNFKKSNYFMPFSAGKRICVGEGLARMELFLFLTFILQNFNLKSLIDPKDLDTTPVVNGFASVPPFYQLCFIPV
Outline: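 Human liver microsomes 0.25 mg/mL, pH 7.4 phosphate, with cocktail substrates phenacetin 50 µM (1A2), diclofenac 10 µM (2C9), S-mephenytoin 100 µM (2C19), midazolam 2.5 µM (3A4); compound at 10 µM. 5 min pre-incubation, then NADPH for 15 min at 37 °C; metabolites by LC-MS/MS MRM, reported as % activity of no-compound control.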

[3] = target: T2, CYP2D6 (Homo sapiens, UniProt P10635); assay: CYP isoenzyme activity inhibition in human liver microsomes, CYP2D6; format: in vitro ADME; conditions: 10 µM compound; human liver microsomes 0.25 mg/mL; relative to control without compound
T2 construct: human liver microsomes (0.25 mg/mL); from tissue; host or cells: human liver microsomes
T2 sequence (P10635 whole entry): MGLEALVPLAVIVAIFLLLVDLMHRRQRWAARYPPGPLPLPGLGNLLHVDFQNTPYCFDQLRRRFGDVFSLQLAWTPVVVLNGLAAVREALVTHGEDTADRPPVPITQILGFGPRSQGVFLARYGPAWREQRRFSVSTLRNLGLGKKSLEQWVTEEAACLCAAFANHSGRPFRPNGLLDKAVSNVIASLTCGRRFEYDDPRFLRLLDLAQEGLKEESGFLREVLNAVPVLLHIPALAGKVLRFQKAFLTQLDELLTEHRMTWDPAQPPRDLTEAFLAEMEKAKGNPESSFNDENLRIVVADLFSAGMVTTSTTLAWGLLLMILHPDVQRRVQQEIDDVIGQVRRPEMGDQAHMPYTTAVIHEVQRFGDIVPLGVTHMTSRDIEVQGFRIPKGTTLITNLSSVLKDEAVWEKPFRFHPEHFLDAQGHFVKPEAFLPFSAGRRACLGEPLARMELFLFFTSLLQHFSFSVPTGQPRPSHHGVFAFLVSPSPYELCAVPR

[4] = target: T3, Tau (Homo sapiens, UniProt P10636); assay: Tau aggregation inhibition in Tau-BiFC cell model (Forskolin-induced); format: cell-based
T3 construct: BiFC fluorescent-protein fragments (two complementary halves on two tau copies); expressed in transfected cells
T3 sequence (P10636 1-441 isoform P10636-8): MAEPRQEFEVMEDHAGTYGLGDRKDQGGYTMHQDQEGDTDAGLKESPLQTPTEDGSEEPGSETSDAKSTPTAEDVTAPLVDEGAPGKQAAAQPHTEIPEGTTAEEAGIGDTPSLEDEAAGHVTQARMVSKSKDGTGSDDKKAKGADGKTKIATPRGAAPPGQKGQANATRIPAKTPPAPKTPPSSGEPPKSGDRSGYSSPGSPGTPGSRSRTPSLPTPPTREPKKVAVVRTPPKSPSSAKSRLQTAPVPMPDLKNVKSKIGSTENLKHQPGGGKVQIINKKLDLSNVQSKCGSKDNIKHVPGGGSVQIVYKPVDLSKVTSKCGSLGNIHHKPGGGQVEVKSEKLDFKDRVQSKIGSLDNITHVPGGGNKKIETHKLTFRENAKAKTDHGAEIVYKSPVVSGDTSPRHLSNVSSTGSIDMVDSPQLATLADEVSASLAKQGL
Outline: as §1

[5] = Liver microsomal stability, mouse; format: in vitro ADME; conditions: 1 µM compound; 0.5 mg/mL microsomes; NADPH; 30 minutes at 37°C
Outline: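 Compound (1 µM) incubated with liver microsomes (0.5 mg/mL; human, dog, rat, mouse) in 0.1 M phosphate pH 7.4, 5 min preincubation at 37°C, then 30 min with NADPH-generating system. Acetonitrile quench; remaining parent quantified by LC-MS/MS.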

CC1CN(C(=O)Nc2nc3ccc(NN=C(C#N)C#N)cc3s2)CC(C)O1 (centres unmarked) [Compound 39, (2-(2,6-dimethylmorpholine-4-carboxamido)benzo[d]thiazol-6-yl)carbonohydrazonoyl dicyanide]
Cell viability (% @10µM) [1]: 98%
CYP2C19 (% activity) [2]: 78.6 % activity
CYP2D6 (% activity) [3]: 85.9 % activity
IC50 [4]: 44 nM
Mouse microsomes (% remaining) [5]: 88.4 % remaining
